# Experimental data: ChEMBL document CHEMBL3046781, “Resistance of Helicoverpa assulta (Guenée) (Lepidoptera: Noctuidae) to fenvalerate, phoxim and methomyl in China” (2009)
# Tests used:
# Type in all cases: functional
# [1] = test system: Helicoverpa assulta; experiment: Insecticidal activity against sixth-instar larvae of Helicoverpa assulta GZ2 at 1.8 to 183360 mg/l after 48 hr by chi-squared analysis
# [2] = test system: Helicoverpa assulta; experiment: Resistance factor, ratio of LD50 for sixth-instar larvae of Helicoverpa assulta FJ1 to LD50 for sixth-instar larvae of Helicoverpa assulta at 1.8 to 183360 mg/l
# [3] = test system: Helicoverpa assulta; experiment: Resistance factor, ratio of LD50 for sixth-instar larvae of Helicoverpa assulta YN8 to LD50 for sixth-instar larvae of Helicoverpa assulta at 1.8 to 183360 mg/l
# [4] = test system: Helicoverpa assulta; experiment: Resistance factor, ratio of LD50 for sixth-instar larvae of Helicoverpa assulta HB1 to LD50 for sixth-instar larvae of Helicoverpa assulta at 1.8 to 183360 mg/l
# [5] = test system: Helicoverpa assulta; experiment: Insecticidal activity against sixth-instar larvae of Helicoverpa assulta GZ4 at 1.8 to 183360 mg/l after 48 hr by chi-squared analysis
# [6] = test system: Helicoverpa assulta; experiment: Insecticidal activity against sixth-instar larvae of Helicoverpa assulta GZ5 at 1.8 to 183360 mg/l after 48 hr by chi-squared analysis
# [7] = test system: Helicoverpa assulta; experiment: Insecticidal activity against sixth-instar larvae of Helicoverpa assulta YN4 at 1.8 to 183360 mg/l after 48 hr by chi-squared analysis
# [8] = test system: Helicoverpa assulta; experiment: Resistance factor, ratio of LD50 for sixth-instar larvae of Helicoverpa assulta GZ2 to LD50 for sixth-instar larvae of Helicoverpa assulta at 1.8 to 183360 mg/l
# [9] = test system: Helicoverpa assulta; experiment: Resistance factor, ratio of LD50 for sixth-instar larvae of Helicoverpa assulta GZ1 to LD50 for sixth-instar larvae of Helicoverpa assulta at 1.8 to 183360 mg/l
# [10] = test system: Helicoverpa assulta; experiment: Resistance factor, ratio of LD50 for sixth-instar larvae of Helicoverpa assulta YN1 to LD50 for sixth-instar larvae of Helicoverpa assulta at 1.8 to 183360 mg/l
# [11] = test system: Helicoverpa assulta; experiment: Insecticidal activity against sixth-instar larvae of Helicoverpa assulta HB2 at 1.8 to 183360 mg/l after 48 hr by chi-squared analysis
# [12] = test system: Helicoverpa assulta; experiment: Insecticidal activity against sixth-instar larvae of Helicoverpa assulta AH2 at 1.8 to 183360 mg/l after 48 hr by chi-squared analysis
# [13] = test system: Helicoverpa assulta; experiment: Insecticidal activity against sixth-instar larvae of Helicoverpa assulta at 1.8 to 183360 mg/l after 48 hr by chi-squared analysis
# [14] = test system: Helicoverpa assulta; experiment: Resistance factor, ratio of LD50 for sixth-instar larvae of Helicoverpa assulta YN2 to LD50 for sixth-instar larvae of Helicoverpa assulta at 1.8 to 183360 mg/l
# [15] = test system: Helicoverpa assulta; experiment: Resistance factor, ratio of LD50 for sixth-instar larvae of Helicoverpa assulta YN8 to LD50 for sixth-instar larvae of Helicoverpa assulta at 21 to 3390 mg/l
# [16] = test system: Helicoverpa assulta; experiment: Insecticidal activity against sixth-instar larvae of Helicoverpa assulta HB1 at 21 to 3390 mg/l after 48 hr by chi-squared analysis
# [17] = test system: Helicoverpa assulta; experiment: Resistance factor, ratio of LD50 for sixth-instar larvae of Helicoverpa assulta FJ2 to LD50 for sixth-instar larvae of Helicoverpa assulta at 21 to 3390 mg/l
# [18] = test system: Helicoverpa assulta; experiment: Resistance factor, ratio of LD50 for sixth-instar larvae of Helicoverpa assulta SD2 to LD50 for sixth-instar larvae of Helicoverpa assulta at 21 to 3390 mg/l
# [19] = test system: Helicoverpa assulta; experiment: Resistance factor, ratio of LD50 for sixth-instar larvae of Helicoverpa assulta YN3 to LD50 for sixth-instar larvae of Helicoverpa assulta at 21 to 3390 mg/l
# [20] = test system: Helicoverpa assulta; experiment: Resistance factor, ratio of LD50 for sixth-instar larvae of Helicoverpa assulta GZ4 to LD50 for sixth-instar larvae of Helicoverpa assulta at 21 to 3390 mg/l
# [21] = test system: Helicoverpa assulta; experiment: Resistance factor, ratio of LD50 for sixth-instar larvae of Helicoverpa assulta FJ1 to LD50 for sixth-instar larvae of Helicoverpa assulta at 21 to 3390 mg/l
# [22] = test system: Helicoverpa assulta; experiment: Resistance factor, ratio of LD50 for sixth-instar larvae of Helicoverpa assulta YN2 to LD50 for sixth-instar larvae of Helicoverpa assulta at 21 to 3390 mg/l
# [23] = test system: Helicoverpa assulta; experiment: Resistance factor, ratio of LD50 for sixth-instar larvae of Helicoverpa assulta YN1 to LD50 for sixth-instar larvae of Helicoverpa assulta at 21 to 3390 mg/l
# [24] = test system: Helicoverpa assulta; experiment: Insecticidal activity against sixth-instar larvae of Helicoverpa assulta SD1 at 21 to 3390 mg/l after 48 hr by chi-squared analysis
# [25] = test system: Helicoverpa assulta; experiment: Insecticidal activity against sixth-instar larvae of Helicoverpa assulta FJ1 at 39 to 12630 mg/l after 48 hr by chi-squared analysis
# [26] = test system: Helicoverpa assulta; experiment: Resistance factor, ratio of LD50 for sixth-instar larvae of Helicoverpa assulta FJ3 to LD50 for sixth-instar larvae of Helicoverpa assulta at 39 to 12630 mg/l
# [27] = test system: Helicoverpa assulta; experiment: Resistance factor, ratio of LD50 for sixth-instar larvae of Helicoverpa assulta HB2 to LD50 for sixth-instar larvae of Helicoverpa assulta at 39 to 12630 mg/l
# [28] = test system: Helicoverpa assulta; experiment: Insecticidal activity against sixth-instar larvae of Helicoverpa assulta GZ2 at 39 to 12630 mg/l after 48 hr by chi-squared analysis
# [29] = test system: Helicoverpa assulta; experiment: Resistance factor, ratio of LD50 for sixth-instar larvae of Helicoverpa assulta YN7 to LD50 for sixth-instar larvae of Helicoverpa assulta at 39 to 12630 mg/l
# [30] = test system: Helicoverpa assulta; experiment: Resistance factor, ratio of LD50 for sixth-instar larvae of Helicoverpa assulta AH2 to LD50 for sixth-instar larvae of Helicoverpa assulta at 39 to 12630 mg/l
# [31] = test system: Helicoverpa assulta; experiment: Resistance factor, ratio of LD50 for sixth-instar larvae of Helicoverpa assulta YN8 to LD50 for sixth-instar larvae of Helicoverpa assulta at 39 to 12630 mg/l
# [32] = test system: Helicoverpa assulta; experiment: Insecticidal activity against sixth-instar larvae of Helicoverpa assulta GZ3 at 39 to 12630 mg/l after 48 hr by chi-squared analysis
# [33] = test system: Helicoverpa assulta; experiment: Resistance factor, ratio of LD50 for sixth-instar larvae of Helicoverpa assulta GZ3 to LD50 for sixth-instar larvae of Helicoverpa assulta at 39 to 12630 mg/l
# [34] = test system: Helicoverpa assulta; experiment: Resistance factor, ratio of LD50 for sixth-instar larvae of Helicoverpa assulta SD1 to LD50 for sixth-instar larvae of Helicoverpa assulta at 39 to 12630 mg/l
# [35] = test system: Helicoverpa assulta; experiment: Resistance factor, ratio of LD50 for sixth-instar larvae of Helicoverpa assulta GZ4 to LD50 for sixth-instar larvae of Helicoverpa assulta at 39 to 12630 mg/l
smiles,measurement,setting,value
CC(C)C(C(=O)OC(C#N)c1cccc(Oc2ccccc2)c1)c1ccc(Cl)cc1 (configuration not stated) [FENVALERATE],LD90,[1],558 µg/g
same,LD50,"[1]; Helicoverpa assulta, GZ2, 48 h",169 mg/kg
same,Ratio,[2],9.01
same,Ratio,[3],17622
same,Ratio,[4],5.83
same,LD90,[5],133 µg/g
same,LD50,"[5]; Helicoverpa assulta, GZ4, 48 h",56.2 mg/kg
same,LD90,[6],74.2 µg/g
same,LD50,"[6]; Helicoverpa assulta, GZ5, 48 h",30.6 mg/kg
same,LD90,[7],4847 µg/g
same,LD50,"[7]; Helicoverpa assulta, YN4, 48 h",1500 mg/kg
same,Ratio,[8],1042
same,Ratio,[9],1860
same,Ratio,[10],8412
same,LD90,[11],18 µg/g
same,LD50,"[11]; Helicoverpa assulta, HB2, 48 h",4.62 mg/kg
same,LD90,[12],259 µg/g
same,LD50,"[12]; Helicoverpa assulta, AH2, 48 h",67.3 mg/kg
same,LD90,[13],0.723 µg/g
same,LD50,"[13]; Helicoverpa assulta, 48 h",0.162 mg/kg
same,Ratio,[14],1313
CNC(=O)ON=C(C)SC [METHOMYL],Ratio,[15],23.1
same,LD90,[16],27.6 µg/g
same,LD50,"[16]; Helicoverpa assulta, HB1, 48 h",12.2 mg/kg
same,Ratio,[17],19.9
same,Ratio,[18],6.17
same,Ratio,[19],23.1
same,Ratio,[20],11.5
same,Ratio,[21],14.6
same,Ratio,[22],18.4
same,Ratio,[23],31.6
same,LD90,[24],19.5 µg/g
same,LD50,"[24]; Helicoverpa assulta, SD1, 48 h",5.68 mg/kg
CCOP(=S)(OCC)O/N=C(\C#N)c1ccccc1 [PHOXIM],LD90,[25],62.2 µg/g
same,LD50,"[25]; Helicoverpa assulta, FJ1, 48 h",16.7 mg/kg
same,Ratio,[26],8.15
same,Ratio,[27],5.04
same,LD90,[28],101 µg/g
same,LD50,"[28]; Helicoverpa assulta, GZ2, 48 h",25.3 mg/kg
same,Ratio,[29],17.9
same,Ratio,[30],7.13
same,Ratio,[31],17.2
same,LD90,[32],65.3 µg/g
same,LD50,"[32]; Helicoverpa assulta, GZ3, 48 h",20.9 mg/kg
same,Ratio,[33],8.94
same,Ratio,[34],5.09
same,Ratio,[35],7.89
